# Measurements published in patent publication US9901592B2 (priority 2008, dated 2018).
# Like-named read-outs stand apart in the source and are kept apart here.
# Columns and labels:
# [1] = system: viridans group streptococci (VGS); assay type: cell-based; details: VGS (51)
# N. meningitidis = test: MIC, CLSI broth microdilution, invasive isolates; assay type: cell-based; details: Neisseria meningitidis; 62 N. meningitidis isolates
# Procedure: Example. […] Colonization of the nasopharynx (NP) by NM can lead to invasive meningococcal disease. Chemoprophylaxis is used to eradicate NP colonization and prevent transmission to nonimmune contacts. […] 62 isolates (91.9% blood culture) of NM were collected from 29 medical centers in North and South America and Europe (1997-2008). […] Serological identification was performed for serogroups (SGs) B, C, Y and W135.
# S. pneumoniae [2] = test: mouse subcutaneous abscess model; assay type: in vivo; details: for average log10 CFU/gram of abscess: S. pneumoniae 1629, 10 mg/Kg PO
# Procedure: Example. Efficacy was evaluated in several infection models. […] PD50s were determined 24 hr post infection. CEM-101 was further evaluated in a subcutaneous abscess mouse model against S. pneumoniae. CD-1 female mice were infected via SC injection of bacteria mixed with cyclodextran beads. Two hr post infection, mice received a single oral dose of CEM 101 or control agents. At 48 hr post dose, mice were euthanized, abscesses aseptically removed and bacteria enumerated. CFU per abscess was determined and compared to the untreated control. […] 24 hr post treatment, the thighs were processed and CFU/gram of thigh determined.
# Example. Mouse Subcutaneous Abscess. Bacteria were prepared from an overnight plate culture by re-suspending in saline and adjusting the suspension to a 0.1 OD at 625 nm of a 1:10 dilution. The adjusted bacterial suspension was mixed 1:2 with cyclodextran beads prepared as per package instructions. The right flanks of the mice were shaven and injected subcutaneously with 0.2 ml of the bacterial inoculum. Two hours post infection mice were treated via oral gavage with either test article or control drug. 48 hours post infection, mice were euthanized, abscesses aseptically removed, homogenized, serially diluted and plated on bacterial growth agar. After overnight incubation, colonies were counted and CFUs/gram of abscess were determined.
# Example. The ability of CEM101 to reduce the microbial load in abscess infection model was also assessed against S. pneumoniae isolates.
# U. parvum = test: MIC testing in 10B broth (colour change); assay type: cell-based, Ureaplasma parvum; details: U. parvum (10 isolates)
# M. fermentans = assay type: cell-based; details: M. fermentans (15 isolates)
# S. pneumoniae [3] = assay type: cell-based
# S. pyogenes [4] = test: MIC of the strains of the mouse systemic infection model; assay type: cell-based; details: Streptococcus pyogenes
# S. pneumoniae [5] = test: as above; assay type: cell-based; details: Streptococcus pneumoniae
# S. pyogenes [6] = assay type: cell-based
# H. influenzae ATCC 49247 = test: post-antibiotic effect (PAE) testing
# S. pneumoniae [7] = test: neutropenic mouse thigh infection; assay type: in vivo; details: PO
# S. aureus = test: mouse systemic infection model (PD50); assay type: in vivo
structure (smiles),measurement,setting,value
"CC[C@H]1OC(=O)[C@@](C)(F)C(=O)[C@H](C)[C@@H](OC2OC(C)CC(N(C)C)C2O)[C@@](C)(OC)C[C@@H](C)C(=O)[C@H](C)[C@H]2N(CCCCn3cc(-c4cccc(N)c4)nn3)C(=O)O[C@]12C (some centres unmarked) [CEM-101, 11-N-4-(3-aminophenyl)-[1,2,3]triazol-1-yl]-butyl}-5-desosaminyl-3-oxo-2-fluoro-erythronolide A,-11,12-cyclic carbamate]",MIC50,[1],≤ 0.008 µg/mL
same,MIC90,[1],0.06 µg/mL
same,MIC Range,[1],≦0.008-0.12 μg/ml
same,MIC50,N. meningitidis,≤ 0.015 µg/mL
same,MIC90,N. meningitidis,≤ 0.015 µg/mL
same,average log10 CFU/gram of abscess,S. pneumoniae [2]; 24 hours,about 3 log10 CFU/gram
same,average log10 CFU/gram of abscess,S. pneumoniae [2]; 48 hours,about 3 log10 CFU/gram
same,log decrease of CFU from untreated mice,"S. pneumoniae [2]; abscess, 10 mg/Kg QD dose",4.2 log10
same,MIC Range,U. parvum,0.002 to 0.031 µg/mL
same,MIC50,"U. parvum; Ureaplasma parvum, read-out: MIC50",0.008 µg/mL
same,MIC90,"U. parvum; Ureaplasma parvum, read-out: MIC90",0.016 µg/mL
same,MIC Range,M. fermentans,≦0.008 μg/mL
same,MIC50,M. fermentans; Mycoplasmopsis fermentans,≤ 0.008 µg/mL
same,MIC90,M. fermentans; Mycoplasmopsis fermentans,≤ 0.008 µg/mL
same,single step mutation frequency,"S. pneumoniae [3]; strain 24 Macrolide-R [erm(B)], 2 × MIC",1.8 × 10^−7
same,single step mutation frequency,"S. pneumoniae [3]; strain 24 Macrolide-R [erm(B)], 4 × MIC",<5.0 × 10^−9
same,single step mutation frequency,"S. pneumoniae [3]; strain 24 Macrolide-R [erm(B)], 8 × MIC",<5.0 × 10^−9
same,single step mutation frequency,"S. pneumoniae [3]; strain 1076 Macrolide-R [erm(B)&mef(A)], 2 × MIC",<2.5 × 10^−8
same,single step mutation frequency,"S. pneumoniae [3]; strain 1076 Macrolide-R [erm(B)&mef(A)], 4 × MIC",7.5 × 10^−9
same,single step mutation frequency,"S. pneumoniae [3]; strain 1076 Macrolide-R [erm(B)&mef(A)], 8 × MIC",2.0 × 10^−9
same,single step mutation frequency,"S. pneumoniae [3]; strain 1077 Macrolide-S, 2 × MIC",<9.1 × 10^−9
same,single step mutation frequency,"S. pneumoniae [3]; strain 1077 Macrolide-S, 4 × MIC",<9.1 × 10^−9
same,single step mutation frequency,"S. pneumoniae [3]; strain 1077 Macrolide-S, 8 × MIC",<9.1 × 10^−9
same,single step mutation frequency,"S. pneumoniae [3]; strain 1635 Macrolide-R [erm(A)], 2 × MIC",1.6 × 10^−8
same,single step mutation frequency,"S. pneumoniae [3]; strain 1635 Macrolide-R [erm(A)], 4 × MIC",<2.0 × 10^−10
same,single step mutation frequency,"S. pneumoniae [3]; strain 1635 Macrolide-R [erm(A)], 8 × MIC",<2.0 × 10^−10
same,single step mutation frequency,"S. pneumoniae [3]; strain 2686 Macrolide-R [L4 mutation], 2 × MIC",<2.5 × 10^−9
same,single step mutation frequency,"S. pneumoniae [3]; strain 2686 Macrolide-R [L4 mutation], 4 × MIC",<2.5 × 10^−9
same,single step mutation frequency,"S. pneumoniae [3]; strain 2686 Macrolide-R [L4 mutation], 8 × MIC",<2.5 × 10^−9
same,single step mutation frequency,"S. pneumoniae [3]; strain 3009 Macrolide-R [23S rRNA mutation], 2 × MIC",<5.9 × 10^−9
same,single step mutation frequency,"S. pneumoniae [3]; strain 3009 Macrolide-R [23S rRNA mutation], 4 × MIC",<5.9 × 10^−9
same,single step mutation frequency,"S. pneumoniae [3]; strain 3009 Macrolide-R [23S rRNA mutation], 8 × MIC",<5.9 × 10^−9
same,single step mutation frequency,"S. pneumoniae [3]; strain 3665 Macrolide-R [mef(A)], 2 × MIC",6.8 × 10^−7
same,single step mutation frequency,"S. pneumoniae [3]; strain 3665 Macrolide-R [mef(A)], 4 × MIC",1.4 × 10^−7
same,single step mutation frequency,"S. pneumoniae [3]; strain 3665 Macrolide-R [mef(A)], 8 × MIC",<4.5 × 10^−10
same,single step mutation frequency,"S. pneumoniae [3]; strain 7127 Macrolide-S [S20N in L4, A105V in L22], 2 × MIC",<2.0 × 10^−10
same,single step mutation frequency,"S. pneumoniae [3]; strain 7127 Macrolide-S [S20N in L4, A105V in L22], 4 × MIC",<2.0 × 10^−10
same,single step mutation frequency,"S. pneumoniae [3]; strain 7127 Macrolide-S [S20N in L4, A105V in L22], 8 × MIC",<2.0 × 10^−10
same,MIC,S. pyogenes [4]; S. pyogenes (erythromycin R),1 µg/mL
same,MIC,S. pyogenes [4]; S. pyogenes (macrolide susceptible),0.015 µg/mL
same,MIC,S. pneumoniae [5]; S. pneumoniae (macrolide susceptible),< 0.03 µg/mL
same,MIC,"S. pneumoniae [5]; S. pneumoniae (mefR), read-out: MIC",< 0.03 µg/mL
same,single step mutation frequency,"S. pyogenes [6]; strain 237 Macrolide-R [L4 mutation], 2 × MIC",<1.3 × 10^−10
same,single step mutation frequency,"S. pyogenes [6]; strain 237 Macrolide-R [L4 mutation], 4 × MIC",<1.3 × 10^−10
same,single step mutation frequency,"S. pyogenes [6]; strain 237 Macrolide-R [L4 mutation], 8 × MIC",<1.3 × 10^−10
same,single step mutation frequency,"S. pyogenes [6]; strain 2011 Macrolide-R [mef(A)], 2 × MIC",3.9 × 10^−8
same,single step mutation frequency,"S. pyogenes [6]; strain 2011 Macrolide-R [mef(A)], 4 × MIC",<1.1 × 10^−10
same,single step mutation frequency,"S. pyogenes [6]; strain 2011 Macrolide-R [mef(A)], 8 × MIC",<1.1 × 10^−10
same,single step mutation frequency,"S. pyogenes [6]; strain 2094 Macrolide-R [erm(A)], 2 × MIC",5.3 × 10^−8
same,single step mutation frequency,"S. pyogenes [6]; strain 2094 Macrolide-R [erm(A)], 4 × MIC",2.1 × 10^−9
same,single step mutation frequency,"S. pyogenes [6]; strain 2094 Macrolide-R [erm(A)], 8 × MIC",<5.3 × 10^−10
same,single step mutation frequency,"S. pyogenes [6]; strain 2132 Macrolide-S, 2 × MIC",<1.0 × 10^−10
same,single step mutation frequency,"S. pyogenes [6]; strain 2132 Macrolide-S, 4 × MIC",<1.0 × 10^−10
same,single step mutation frequency,"S. pyogenes [6]; strain 2132 Macrolide-S, 8 × MIC",<1.0 × 10^−10
same,single step mutation frequency,"S. pyogenes [6]; strain 2368 Macrolide-R [erm(B)], 2 × MIC",<5.9 × 10^−11
same,single step mutation frequency,"S. pyogenes [6]; strain 2368 Macrolide-R [erm(B)], 4 × MIC",<5.9 × 10^−11
same,single step mutation frequency,"S. pyogenes [6]; strain 2368 Macrolide-R [erm(B)], 8 × MIC",<5.9 × 10^−11
same,average PAE,H. influenzae ATCC 49247; Gram-negative pathogens,4.5 h
same,PAE,"H. influenzae ATCC 49247; H. influenzae ATCC 49247, 4X MIC, exposure 1 hour",3.2 h
same,Dose for 1 log10 Reduction from 24 hour controls,"S. pneumoniae [7]; S. pneumoniae 1629, QD",6.0 mg/Kg
same,Dose for 3 log10 Reduction from 24 hour controls,"S. pneumoniae [7]; S. pneumoniae 1629, QD",8.0 mg/Kg
same,1 log kill,"S. pneumoniae [7]; S. pneumoniae 6303, Q6",23.0 mg/Kg
same,EC50,"S. pneumoniae [7]; S. pneumoniae 6303, Q6",16.7 mg/kg
same,Static dose,"S. pneumoniae [7]; S. pneumoniae 6303, Q6",20.5 mg/kg
same,1 log kill,"S. pneumoniae [7]; S. pneumoniae 6303, Q8",23.0 mg/Kg
same,Emax,"S. pneumoniae [7]; S. pneumoniae 6303, Q8",5.01 log10CFU/thigh
same,Static dose,"S. pneumoniae [7]; S. pneumoniae 6303, Q8",12.1 mg/kg
same,1 log kill,"S. pneumoniae [7]; S. pneumoniae 6303, Q12",24.0 mg/Kg
same,Static dose,"S. pneumoniae [7]; S. pneumoniae 6303, Q12",19.2 mg/kg
same,Emax,"S. pneumoniae [7]; S. pneumoniae 6303, Q24",6.38 log10CFU/thigh
same,Static dose,"S. pneumoniae [7]; S. pneumoniae 6303, Q24",8.2 mg/kg
same,Dose for 1 log10 Reduction from 24 hour controls,"S. pneumoniae [7]; S. pneumoniae 6303, QD",1.2 mg/Kg
same,Dose for 2 log10 Reduction from 24 hour controls,"S. pneumoniae [7]; S. pneumoniae 6303, QD",3.0 mg/Kg
same,Dose for 3 log10 Reduction from 24 hour controls,"S. pneumoniae [7]; S. pneumoniae 6303, QD",5.0 mg/Kg
same,PD50,S. aureus; MRSA,7.5 mg/kg
same,PD50,S. aureus; MRSA 300 (CA),9.5 mg/kg
same,PD50,"S. aureus; S. aureus, single oral dose 1 hr post infection",16.3 mg/kg
